Where a SMILES comes first, the peptide text is derived from it. Bridges are numbered along the chain shown (N, C = ends). [ ]: non-standard residue; d: D form.
Test: 2D NMR structural score versus reference peptide
Assay type: physicochemical
Set-up: key to Struct. Score: +++ indicates the peptide is structured similarly to IGE063 (SEQ ID NO:49); + indicates the peptide is structured similarly to IGE063 (SEQ ID NO:49), but is less stable; −/+ indicates the peptide has some elements of stable structure, but the conformation differs from the reference structure (e.g., a different turn type is evident); − indicates the peptide is predominantly unstructured in aqueous solution; key to Structure Score: +++, peptide structurally similar to reference; +, structurally similar to reference but significantly less stable; +/−, peptide has some elements of stable structure, but the conformation differs from the reference structure; −, peptide is predominantly unstructured; *peptide IGE037 (SEQ ID NO:128) was initially unstructured (monomeric form), but became structured after spontaneous dimer formation
Conditions: for Struct. Score: reference IGE063; for Structure Score: reference IGE134
Procedure: Peptides were evaluated by 2D NMR spectroscopy to assess the effect of substitutions on the three-dimensional structure of the peptide analog. All peptides with a structural score indicated in Table 5 were analyzed by 2D NMR spectroscopy; backbone ^1H resonances were assigned and ^3JHN-Hα coupling constants were measured and compared to the reference peptide (IGE063, SEQ ID NO:49; see Example 5). Peptides are defined to be of similar structure to the reference peptide provided chemical shifts, coupling constants, and NOEs are consistent with that structure.
A structural score was assigned to peptides analyzed by 2D NMR spectroscopy. For each of these peptides, backbone ^1H resonances have been assigned, and the ^3JHN-Ha coupling constants have been measured and compared to the reference peptide (i.e., IGE134 (SEQ ID NOS:155, 171)). Peptides are defined to be of similar structure to the reference peptide provided. chemical shifts, coupling constants, and NOEs are consistent with that structure.

Row | SMILES | Struct. Score | Structure Score
1 | CSCC[C@H](NC(=O)[C@@H]1CSSC[C@H](NC(=O)[C@H](CCCNC(=N)N)NC(=O)[C@@H]2CCCN2C(=O)[C@H](CC(C)C)NC(=O)[C@H](CC(N)=O)NC(C)=O)C(=O)N[C@@H]([C@@H](C)O)C(=O)N[C@@H](CCC(=O)O)C(=O)NCC(=O)N2CCC[C@H]2C(=O)N[C@@H](Cc2c[nH]c3ccccc23)C(=O)N[C@H](C)C(=O)N[C@@H](Cc2c[nH]c3ccccc23)C(=O)N[C@@H](C(C)C)C(=O)N1)C(=O)O [IGE105, Ac-NLPRCTEGPWaWVCM] (Ac-NLPRCTEGPW[dA]WVCM-OH; disulfide 5-14; C-terminus assumed) | +++ | 
2 | CSCC[C@H](NC(=O)[C@@H]1CSSC[C@H](NC(=O)[C@H](CCCNC(=N)N)NC(=O)[C@@H]2CCCN2C(=O)[C@H](CC(C)C)NC(=O)[C@H](CC(N)=O)NC(C)=O)C(=O)N[C@@H]([C@@H](C)O)C(=O)N[C@@H](CCC(=O)O)C(=O)NCC(=O)N2CCC[C@H]2C(=O)N[C@@H](C(C)C)C(=O)NCC(=O)N[C@@H](Cc2c[nH]c3ccccc23)C(=O)N[C@@H](C(C)C)C(=O)N1)C(=O)O [IGE106, Ac-NLPRCTEGPVGWVCM] (Ac-NLPRCTEGPVGWVCM-OH; disulfide 5-14; C-terminus assumed) | +++ | 
3 | CSCC[C@H](NC(=O)[C@@H]1CSSC[C@H](NC(=O)[C@@H]2CCCN2C(=O)[C@H](CC(C)C)NC(=O)[C@H](CC(N)=O)NC(C)=O)C(=O)N[C@@H]([C@@H](C)O)C(=O)N[C@@H](CCC(=O)O)C(=O)NCC(=O)N2CCC[C@H]2C(=O)N[C@@H](Cc2c[nH]c3ccccc23)C(=O)NCC(=O)N[C@@H](Cc2c[nH]c3ccccc23)C(=O)N[C@@H](C(C)C)C(=O)N1)C(=O)O [IGE107, Ac-NLPCTEGPWGWVCM] (Ac-NLPCTEGPWGWVCM-OH; disulfide 4-13) | + | 
4 | CSCC[C@H](NC(=O)[C@@H]1CSSC[C@H](NC(=O)[C@H](CCCNC(=N)N)NC(=O)[C@@H]2CCCN2C(=O)[C@H](CC(C)C)NC(=O)[C@H](CC(N)=O)NC(C)=O)C(=O)N[C@@H]([C@@H](C)O)C(=O)N[C@@H](CCC(=O)O)C(=O)NCC(=O)N2CCC[C@H]2C(=O)N[C@@H](Cc2c[nH]c3ccccc23)C(=O)NCC(=O)N[C@@H](CC(C)C)C(=O)N[C@@H](C(C)C)C(=O)N1)C(=O)O [IGE109, Ac-NLPRCTEGPWGLVCM] (Ac-NLPRCTEGPWGLVCM-OH; disulfide 5-14; C-terminus assumed) | +++ | 
5 | CC(C)C[C@@H]1NC(=O)[C@H](C)NC(=O)[C@H](Cc2c[nH]cn2)NC(=O)CNC(=O)CNC(=O)[C@H](C(C)C)NC(=O)[C@H](Cc2ccc(O)cc2)NC(=O)[C@@H]2CSSC[C@H](NC1=O)C(=O)N1CCC[C@H]1C(=O)N[C@@H](CC(=O)O)C(=O)N[C@@H](C(C)C)C(=O)N[C@H](C(=O)N[C@@H](Cc1ccc(O)cc1)C(=O)N[C@H](C(=O)NCC(=O)N[C@@H](CCCNC(=N)N)C(=O)O)C(C)C)CSSC[C@H](NC(=O)[C@H](CCC(N)=O)NC(=O)[C@@H](N)C(C)C)C(=O)N1CCC[C@H]1C(=O)N[C@@H](Cc1c[nH]cn1)C(=O)N[C@@H](Cc1ccccc1)C(=O)N2 [IGE132] (H-VQCPHFCYVGGHALCPDVCYVGR-OH; disulfide 3-19, 7-15) |  | +++
6 | CC(C)C[C@@H]1NC(=O)[C@H](C)NC(=O)[C@H](Cc2c[nH]cn2)NC(=O)CNC(=O)CNC(=O)[C@H](C(C)C)NC(=O)[C@H](Cc2ccc(O)cc2)NC(=O)[C@@H]2CSSC[C@H](NC1=O)C(=O)N[C@@H](C)C(=O)N[C@@H](CC(=O)O)C(=O)N[C@@H](C(C)C)C(=O)N[C@H](C(=O)N[C@@H](Cc1ccc(O)cc1)C(=O)N[C@H](C(=O)NCC(=O)N[C@@H](CCCNC(=N)N)C(=O)O)C(C)C)CSSC[C@H](NC(=O)[C@H](CCC(N)=O)NC(=O)[C@@H](N)C(C)C)C(=O)N1CCC[C@H]1C(=O)N[C@@H](Cc1c[nH]cn1)C(=O)N[C@@H](Cc1ccccc1)C(=O)N2 [IGE143] (H-VQCPHFCYVGGHALCADVCYVGR-OH; disulfide 3-19, 7-15 (inferred)) |  | +++

Source: patent publication US20040086942A1, “Ige receptor antagonists” (priority 2003, published 2004)
